# Source: patent US7144862B2, “Orally administered peptides to ameliorate atherosclerosis” (The Regents of the University of California, priority 2000, dated 2006)
# “And” between values parts separate entries of the source, which are not always exact repeats. Identical values can stand only once.
# Key:
# [1] = Plasma total and HDL cholesterol after oral D-4F; type: in vivo, mouse; details: for Mean HDL-cholesterol / plasma total cholesterol concentration: apo E null mice
# Experimental: Protein (Navab et al. (2000) J Lipid Res. 41: 1481–1494) and cholesterol (Van Lenten et al. (2001) Circulation, 103: 2283–2288) content of lipoproteins and statistical analyses were performed as described by Van Lenten et al. (2001) Circulation, 103: 2283–2288, with significance defined as P<0.05.
# [2] = system: human artery wall cell cocultures; test: Lipoproteins from mice given peptide by gavage tested in human artery wall cell cocultures (monocyte chemotactic activity); details: 4F, 100 μg by oral gavage, LDL receptor deficient mice, blood after 6 hrs
# Experimental: Groups of LDL receptor-deficient mice (n=3) were administered the D-peptides or the saline vehicle by gavage. […] Blood was collected from retroorbital sinus under mild anesthesia 17 hrs later. LDL was isolated from plasma by FPLC. Cocultures of artery wall cells were incubated with medium alone (NO ADDITION), control LDL from normal subjects (LDL), LDL plus control HDL from normal subjects (+HDL). […] The cocultures were incubated for 4 hrs at 37° C. in the presence of 10% LPDS. The supernatants were then discarded, the cocultures were washed and incubated with culture medium without serum or LPDS for an additional 4 hrs. This conditioned medium was collected and analyzed for monocyte chemotactic activity. The values are mean±SD of quadruplicate cocultures.
# Blood was collect after 6 hrs, plasma HDL and LDL were isolated by gel filtration (FPLC) and examined in the cocultures. […] Human LDL at 200 μg protein/ml was added to human artery wall cell cocultures together with human HDL (hHDL) at 350 μg protein/ml or mouse HDL (mHDL) at 100 μg cholesterol/ml taken from mice that received saline (Saline Rx) or L-4F (L-4F Rx) or D-4F (D-4F Rx) and monocyte chemotactic activity was determined as described herein. […] On the right, mouse LDL (mLDL) was isolated from mice receiving saline (Saline Rx) or L-4F (L4F Rx) or D-4F (D-4F Rx) and was added at 100 μg cholesterol/ml to the artery wall cell cocultures without HDL and monocyte chemotactic activity determined. Values are mean±SD) for four wells in two independent experiments.
# Either saline or 2F synthesized from D amino acids or from L amino acids was instilled in the stomachs of mice by gavage (instillation in the stomach by tube). After gavage the mice were bled and their LDL isolated and added to the human artery wall cell cocultures.
# The animals were bled 1.5, 3 or 6 hours later and their HDL, LDL, and VLDL/IDL isolated.
# Human aortic endothelial and smooth muscle cells were isolated and cultured as previously described (Id.). Cellular oxidation of LDL in the presence and absence of HDL was determined as described (Id.). Human blood monocytes were isolated after obtaining informed consent and monocyte chemotaxis was determined as described previously^5.
# [3] = system: mice infected with Influenza A virus; type: in vivo, mouse; details: 20 micrograms daily injected after infection
# [4] = system: LDL receptor null mice on a Western diet; test: Aortic root lesions, oral gavage twice daily for 6 weeks; type: in vivo, mouse; details: oral gavage twice daily for 6 weeks (2.5 mg in liposomes)
# Experimental: Groups of LDL receptor null mice were placed on a Western diet and were given by oral gavage, 100 μl of saline alone (Saline), n=4 animals, or 100 μl of liposomes without D-4F (Liposomes), n=5 animals, or 2.5 mg D-4F peptide in 100 μl liposomes (D-4F in liposomes), n=6 animals, twice daily for 6 weeks. The mice were bled, and subsequently sacrificed, aortic root fixed, sectioned and the extent of Oil Red O staining in fatty streak lesions quantified.
# Female LDL receptor null or apo E null mice on a C57BL/6J background were purchased from the Jackson Laboratory, Bar Harbor, Me. The LDL receptor null mice were maintained on Purina chow diet (Ralston Purina Co.) until they were 4 weeks old when they were switched to a Western diet (Teklad, Madison, Wis., diet # 88137) for 6 weeks. The apo E null mice were maintained on Purina chow diet throughout the study LDL receptor null mice received the test peptide or a vehicle control by gastric gavage twice daily for the periods indicated in the figure legends. […]
# Mice were bled under anesthesia from the retro-orbital venous plexus, in accordance with protocols approved by the UCLA Animal Research Committee. Atherosclerotic lesions were measured as previously described^9.
# [5] = Surface pressure measurements: monolayer exclusion pressure; type: physicochemical; details: EPC monolayer; reproducibility ± 1 dyn/cm
# Experimental: An insoluble monolayer of egg phosphatidylcholine (EPC) was spread at the air-water interface in a Teflon dish at room temperature to give an initial surface pressure (πi) in the range of 5–45 dyn/cm. A solution of peptides in PBS containing 1.5M Gdn. HCl was carefully injected in to the subphase to give a final concentration of 50 μg/dL. The Gdn. HCl was diluted in the subphase to a final concentration of ≦1 mM to allow the peptides to renature. The subphase was stirred continuously and the increase in EPC monolayer surface pressure (Δπ) was recorded until a steady state value was obtained. The value of the initial surface pressure (πi) at which the peptides no longer penetrate the EYPC monolayer i.e. the exclusion pressure (πe), was calculated by extrapolating the πi vs Δπ linear regression fit to Δπ=0 dyn/cm.
# [6] = Circular dichroism, percent helicity; type: physicochemical
# Experimental: Briefly, spectra were obtained using a cell with a 0.1 cm path length and measurements were taken every nm from 260 nm to 190 nm at 25° C. All the CD spectra were signal averaged by adding four scans, base line corrected and smoothed. Peptide solutions in PBS, pH 7.4, were used at a concentration of 11 μM. Peptide-DMPC complexes (1:20 mol:mol) were used to determine the effect of lipid binding on the helicity of these peptides. These complexes were prepared by adding the appropriate volume of peptide solution to DMPC multilamellar vesicles. DMPC multilamellar vesicles were prepared as follows: A known amount of lipid was dissolved in ethanol and the solvent was removed by evaporating slowly under a thin stream of nitrogen. Residual solvent was removed by storing the lipid film under vacuum overnight. An appropriate volume of PBS, pH 7.4 was added to the thin lipid film to give the required final concentration of DMPC.
# [7] = Non-denaturing PAGE, self-association; type: physicochemical; details: 100 and 250 μg/ml
# Experimental: Non-denaturing and SDS-PAGE and was carried out using the method of Laemmli (1970) Nature 227: 680–685. Premade Novex gels were used and the gel was stained with Coomassie blue to identify the protein bands.
# Solubility in PBS = type: physicochemical; details: in PBS
# Experimental: The peptides were purified on a preparative Vydac C4 column by reversed-phase (RP)-HPLC using water (with 0.1% trifluoroacetic acid) and acetonitrile (0.1% trifluoroacetic acid). The purity and the retention times of the peptides were determined on an analytical Vydac C18 column using a gradient of 25%-58% acetonitrile in water containing 0.1% TFA. The purity of these peptides was also confirmed by mass spectrometry. The mass was in agreement with the calculated molecular weight. Although both the 3F peptides and 4F have additional Phe residues compared to 2F, the retention times of these peptides on the C18 column are not very different (˜22 min). A sudden increase in the retention time is apparent with 5F, 6F and 7F (˜26 min). With increasing number of Phe residues, the solubility of these peptides in PBS decreases.
# [8] = Right angle light scattering, dissolution of EPC MLVs; type: physicochemical; details: 105 μM EPC, equimolar peptide, 25° C., 30 min
# Experimental: EPC MLVs were prepared by evaporating a solution of EPC (Avanti Polar, AL) under nitrogen and hydrating the lipid film with phosphate-buffered saline (pH 7.4). […] Turbidity clarification was monitored for 30 min.
# [9] = DSC, bilayer to hexagonal phase transition of DiPoPE; type: physicochemical; details: heating scan rate 37°/h
# Experimental: (§1) A known amount of phospholipid was dissolved in chloroform. For one set of samples, peptide was dissolved in methanol and added to a solution of DiPoPE in chloroforn/methanol (2:1, v:v). For both, pure lipid samples and the organic solutions of lipid and peptide, solvent was removed under a slow stream of nitrogen. Residual solvent was removed under vacuum. […] For DMPC, four consecutive scans with a 60 minute equilibration time between scans were taken. DSC thermograms were analyzed using the software provided by MicroCal Inc., Amherst, Mass., and Origin, version 5.0.
# In the current study we prepared the peptide-lipid mixtures in two ways. One was by adding the peptide in organic solvent to the lipid in organic solvent followed by depositing the material as a film and subsequently hydrating with buffer. In the other method, the peptide and lipid were mixed after each was hydrated separately. If the mixture comes to equilibrium prior to the DSC analysis, it should not matter how the peptide and lipid are originally mixed. However, membrane systems can equilibrate slowly, in which case there may be more peptide in the lipid when it was incorporated at high concentrations into the lipid film.
# [10] = system: human artery wall cell cocultures; test: LDL-induced monocyte chemotactic activity with the homologous series of peptides (Example 3); type: cell-based; details: peptide at 100 μg/ml, LDL 250 μg protein/ml, 8 h
# Experimental: Microtitre plates were treated with 0.1% gelatin at 37° C. overnight. HASMC were added at a confluent density of 1×10^5 cells/cm^2. […] HAEC were subsequently added at 2×10^5 cells/cm^2 and were allowed to grow, forming a complete monolayer of confluent HAEC in two days. In all experiments, HAEC and autologous HASMC (from the same donor) were used at passage levels of four to six. […] The cocultures were treated with native LDL(250 μg protein/ml) or presence of HDL (350 μg protein/ml) or peptides for 8 h.
# [11] = DSC, chain melting transition of DMPC; type: physicochemical; details: DMPC/peptide 100:1 (mol/mol)
# Experimental: as §1
# The effect of these 18A analogues on the chain melting transition of multilamellar vesicles of DMPC was studied by DSC using peptide-lipid mixtures at 100:1 lipid/peptide molar ratio.
# C57 BL6 mice = test: Diet-induced lesion formation with 2F; type: in vivo, mouse
# Source text: It follows that in this mouse model, inhibition of LDL-induced monocyte chemotaxis is more anti-atherogenic than LCAT activation. Since the peptides 2F and 4F are similar in activating LCAT, and 4F and 5F are similar in removing “seeding molecules” from LDL, the peptide 4F may serve as a reagent to distinguish between the importance of LCAT activation and the inhibition of LDL-induced monocyte chemotaxis in different atherosclerosis-sensitive mouse models. If the inhibition of LDL-induced chemotaxis is more important than the LCAT-activating ability, then 4F should be better peptide to use as an inhibitor of atherosclerosis since this peptide is more soluble than the peptides 5F, 6F and 7F.
# [12] = LDL receptor null mice, Western diet, gavage twice daily 6 weeks
# [13] = 2.5 mg/mouse/day in drinking water
# [14] = 5.0 mg/mouse/day in drinking water
compound,measurement,setting,value
"CC(=O)N[C@H](CC(=O)O)C(=O)N[C@H](Cc1c[nH]c2ccccc12)C(=O)N[C@H](Cc1ccccc1)C(=O)N[C@H](CCCCN)C(=O)N[C@H](C)C(=O)N[C@H](Cc1ccccc1)C(=O)N[C@H](Cc1ccc(O)cc1)C(=O)N[C@H](CC(=O)O)C(=O)N[C@H](CCCCN)C(=O)N[C@@H](C(=O)N[C@H](C)C(=O)N[C@H](CCC(=O)O)C(=O)N[C@H](CCCCN)C(=O)N[C@H](Cc1ccccc1)C(=O)N[C@H](CCCCN)C(=O)N[C@H](CCC(=O)O)C(=O)N[C@H](C)C(=O)N[C@H](Cc1ccccc1)C(N)=O)C(C)C [Peptide D-4F, Ac-D-W-F-K-A-F-Y-D-K-V-A-E-K-F-K-E-A-F-NH2]",Total cholesterol,[1]; [12],761 ± 69 mg/dL
same,mean HDL-cholesterol level,[1]; [12],73 ± 8.7 mg/dL
same,Mean HDL-cholesterol,[1]; [13],38.7 ± 5 mg/dL
same,plasma total cholesterol concentration,[1]; [13],534 ± 12.3 mg/dL
same,Mean HDL-cholesterol,[1]; [14],43.4 ± 6 mg/dL
same,plasma total cholesterol concentration,[1]; [14],579 ± 4.6 mg/dL
same,HDL protective capacity,[2],enhance HDL protective capacity
same,LDL-induced monocyte chemotactic activity (mouse LDL),[2],decrease LDL-induced monocyte chemotactic activity
same,biologically active oxidized phospholipids in the aorta after influenza A infection,[3],not generated beyond background
same,plasma paraoxonase levels after influenza A infection,[3],did not fall
same,reduction in atherosclerotic lesions,[4],79% and 81%
"Ac-DWLKAFYDKVAEKLKEAF-NH2 [Peptide 2F, Ac-D-W-L-K-A-F-Y-D-K-V-A-E-K-L-K-E-A-F-NH2]",Monolayer Exclusion Pressure(πc),[5],38 dyn/cm
same,Percent Helicity PBS,[6]; 11 μM peptide in PBS,55%
same,Percent Helicity DMPC,"[6]; 11 μM peptide, Peptide: DMPC 1:20 (mol/mol)",72%
same,self-association on non-denaturing PAGE,[7],forms aggregates in a concentration dependent manner
same,Solubility,Solubility in PBS,>2000 µg/mL
same,solubility,Solubility in PBS; read-out: Solubility,1250 to 1400 µg/mL
same,clarification of EPC MLVs,[8],clarified the EPC MLVs to a similar extents
same,shift in TH of DiPoPE with mol fraction of peptide,[9],linear increase in TH
same,inhibition of LDL-induced monocyte chemotaxis,[10],some inhibitory activity
same,TCM(° C.),"[11]; 1.5 mM DMPC, chain melting transition temperature",23.2 °C
same,ΔHCM (kcals/mol),[11]; enthalpy of the transition,4.5 kcals/mol
same,ΔT1/2 (° C.),[11]; width at half maximum of the transition,0.5 °C
same,mean lesion area,"C57 BL6 mice; 2F-administered mice, n=15, PBS control 14.7±1.8",13.2±1.7 μm^2×10^−3
same,inhibition of diet-induced lesion formation,C57 BL6 mice; C57 BL6 mice,did not significantly inhibit diet-induced lesion formation
